Measured values from patent publication US20180289739A1, “Combination Therapy for Treating Proliferative Diseases” (BIONOMICS LIMITED, priority 2009, published 2018).

Assays:
[1] = tested on: Human umbilical vein endothelial cells (HUVECs), tumour type activated endothelial cells (Tum); experiment: Proliferation Assay - Activated Endothelium (MTT); format: cell-based; settings: for Potency against activated (tumour) versus quiescent (normal) endothelial cells: activated compared with quiescent endothelial cells; for IC50: Homo sapiens, HUVEC, tumour type activated endothelial cells, 48 hrs
Protocol: Proliferation Assay—Activated Endothelium:
(§1) Human umbilical vein endothelial cells (CC-2519, Clonetics) were plated at 2500 cells/well in EGM2 (CC-3162, Clonetics) in a 96 well plate in triplicate. Cells were cultured overnight at 37° C. 5% CO2. Medium was subsequently replaced with fresh medium including the compound or negative control. Cells were cultured for a period of 48 hrs. An MTT assay was performed to measure changes in cell numbers. Briefly, 20 μl of MTT reagent was added to cells containing 100 μl of EGM2 and incubated at 37° C. for 2 hours. Absorbance was measured at 492 nm.

[2] = tested on: Human umbilical vein endothelial cells (HUVECs), normal quiescent type endothelial cells (Norm); experiment: Proliferation Assay - Quiescent Endothelium (MTT); format: cell-based; settings: HUVEC, 48 hrs
Protocol: Proliferation Assay—Quiescent Endothelium:
as §1, with “15000” for “2500”, “EBM2 (CC-3156, Clonetics)+0.5% FBS (CC-4101A, Clonetics)+GA-1000 (CC-4381A,” for “EGM2 (CC-3162,”, “EBM2+0.5% FBS” for “EGM2”

[3] = tested on: MCF-7; experiment: Growth inhibition of cancer cell line, Sulforhodamine B (SRB) or Systmex cell counting (CC) assay; format: cell-based; settings: Homo sapiens, MCF7, concentration required to inhibit net cell growth by 50%
[4] = tested on: tubulin; experiment: Tubulin polymerisation inhibition; format: biochemical
[5] = tested on: MDA-MB-231 solid orthotopic tumours; experiment: Tumour Growth Inhibition, MDA-MB-231 orthotopic tumours; format: in vivo, Balb/c nu/nu mice; settings: 40 mg/kg i.v., two cycles; monitored up to 72 days; vs vehicle, p<0.001 from day 4 to Day 70
Protocol: Tumour Growth Inhibition:
Balb/c nu/nu mice bearing MDA-MB-231 solid orthotopic tumours were treated with compound Example 2 at 40 mg/kg. Animals were i.v. dosed with a total of two cycles of Example 2 treatment. Each cycle was dosing on […] followed by a three week no-dosing period. Tumour growth represented as a ratio to initial tumour volume is shown over a total of 72-days.
Tumour growth as well as animal health were monitored for up to 72 days post-day 1 of treatment. […] Significant differences in tumour growth between Example 2 treated (n=64) and vehicle treated (n=20) animals were observed as early as day 4 (p<0.001; unpaired t-test; Prism® analysis) through to Day 70.

IC50 [3]	SMILES	Potency against activated (tumour) versus quiescent (normal) endothelial cells [1]	IC50 [1]	IC50 [2]	Tubulin polymerisation inhibition [4]	Tumour growth (ratio to initial tumour volume) [5]
–	COc1ccc(/C=C\c2cc(OC)c(OC)c(OC)c2)cc1O [Combretastatin A4]	equally potent against quiescent and activated endothelial cells	–	–	–	–
500 nM	COc1ccc2c(C(=O)c3cc(OC)c(OC)c(OC)c3)c(Br)oc2c1 [Comparator D]	–	100 to 1000 nM	100 to 1000 nM	–	–
2 nM	COc1cc(C(=O)c2c(C)oc3c(O)c(OC)ccc23)cc(OC)c1OC [Example 1, 2-Methyl-7-hydroxy-3-(3,4,5-trimethoxybenzoyl)-6-methoxybenzofuran]	high potency towards tumour endothelial cells (activated) over normal endothelial cells (quiescent)	0.1 to 1 nM	10 to 100 nM	potent tubulin polymerisation inhibitor	–
–	COc1cc(C(=O)c2c(C)oc3c(OP(=O)([O-])[O-])c(OC)ccc23)cc(OC)c1OC.[Na+].[Na+] [Example 2, Disodium 6-methoxy-2-methyl-3-(3,4,5-trimethoxybenzoyl)benzofuran-7-yl Phosphate]	–	–	–	–	clearly show tumour growth inhibition

SMILES	IC50 [3]	Potency against activated (tumour) versus quiescent (normal) endothelial cells [1]	IC50 [1]	IC50 [2]	Tubulin polymerisation inhibition [4]	Tumour growth (ratio to initial tumour volume) [5]
COc1ccc2c(C(=O)c3cc(OC)c(OC)c(OC)c3)coc2c1 [Comparator C]	55 nM	–	10 to 100 nM	10 to 100 nM	–	–
